This assay relates to CD2F1 mice, L1210 leukemia ip, survival T/C. Description: NCI In Vivo Anticancer Drug Screen. Data for tumor model L1210 Leukemia (intraperitoneal) in CD2F1 (CDF1) mice. Conditions: endpoint: mean survival time, higher = longer survival. Put shortly: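 Mice carrying a transplanted tumor received test compound or vehicle alone. The value is the measurement in the treated group divided by that in the vehicle-treated control group.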

Where [1] appears, read: dose: 100.0 mg/kg/injection, schedule: Q01DX001 (ip), vehicle: saline.
Where [2] appears, read: dose: 200.0 mg/kg/injection, schedule: Q01DX001 (ip), vehicle: saline.
The mark [3] stands for this setting: dose: 400.0 mg/kg/injection, schedule: Q01DX001 (ip), vehicle: saline.
Setting [4] is: dose: 100.0 mg/kg/injection, schedule: Q04DX003 (ip), vehicle: saline.
[5] abbreviates: dose: 100.0 mg/kg/injection, schedule: Q04DX002 (ip), vehicle: saline with Tween-80.
[6] abbreviates: dose: 200.0 mg/kg/injection, schedule: Q04DX002 (ip), vehicle: saline with Tween-80.
The mark [7] stands for this setting: dose: 400.0 mg/kg/injection, schedule: Q04DX002 (ip), vehicle: saline with Tween-80.
The mark [8] stands for this setting: dose: 100.0 mg/kg/injection, schedule: Q04DX003 (ip), vehicle: saline with Tween-80.
Setting [9] is: dose: 200.0 mg/kg/injection, schedule: Q04DX003 (ip), vehicle: saline with Tween-80.
[10] abbreviates: dose: 400.0 mg/kg/injection, schedule: Q04DX003 (ip), vehicle: saline with Tween-80.
[11] abbreviates: dose: 100.0 mg/kg/injection, schedule: Q01DX001 (ip), vehicle: saline with Tween-80.
Setting [12] is: dose: 200.0 mg/kg/injection, schedule: Q01DX001 (ip), vehicle: saline with Tween-80.
[13] abbreviates: dose: 50.0 mg/kg/injection, schedule: Q01DX009 (ip), vehicle: saline with Tween-80.
Where [14] appears, read: dose: 100.0 mg/kg/injection, schedule: Q01DX009 (ip), vehicle: saline with Tween-80.
Setting [15] is: dose: 200.0 mg/kg/injection, schedule: Q01DX009 (ip), vehicle: saline with Tween-80.
[16] abbreviates: dose: 25.0 mg/kg/injection, schedule: Q04DX003 (ip), vehicle: saline.
Where [17] appears, read: dose: 50.0 mg/kg/injection, schedule: Q04DX003 (ip), vehicle: saline.

Molecules are shown by their SMILES. Where “and” joins values, the source holds several entries; their conditions need not be identical. Equal entries are not always repeated. Inconclusive results and toxic doses are left out.

`CC(NC(=O)c1cnc2ccccc2n1)C(=O)NC(C(=O)O)C(C)C` (configuration not stated): the T/C is, setting by setting: under setting [1], 100 % of control; under setting [2], 100 % of control; under setting [3], 102 % of control.

Take `CC(=O)Nc1ccc(C(=O)C=P(c2ccccc2)(c2ccccc2)c2ccccc2)cc1`: the T/C is 101 % of control under setting [1], 97 % of control under setting [2] and 97 % of control under setting [3].

As to `Cc1cccc[n+]1[O-]`, the T/C is 101 % of control under setting [4]; 98 % of control (dose: 200.0 mg/kg/injection, schedule: Q04DX003 (ip), vehicle: saline); 88 % of control (dose: 400.0 mg/kg/injection, schedule: Q04DX003 (ip), vehicle: saline).

`O=C(c1ccccc1)C(Br)C(Br)c1ccc([N+](=O)[O-])cc1` (configuration not stated): the T/C under setting [5] was 89 % of control, the T/C under setting [6] was 101 % of control and the T/C under setting [7] was 101 % of control.

For `CC(=O)Nc1cccc(OCCCOc2cccc([N+](=O)[O-])c2)c1`, the T/C is, setting by setting: under setting [8], 95 % of control; under setting [9], 95 % of control; under setting [10], 92 % of control.

Regarding `Cc1ccc(NC(=O)c2ccc(Cl)cc2)c(Br)c1`, the T/C under setting [8] is 103 % of control, the T/C under setting [9] was 105 % of control and the T/C under setting [10] was 97 % of control.

With `CCCCC(C#N)C(=O)OCC` (configuration not stated), the T/C reads like this: under setting [8], 96 % of control; under setting [9], 93 % of control.

As for `CN(c1ccccc1)c1ccccc1`, the T/C is 94 % of control under setting [11] and 89 % of control under setting [12].

For `CCCC(Br)C(=O)OCC` (configuration not stated), the T/C is 96 % of control under setting [13], 93 % of control under setting [14] and 93 % of control under setting [15].

With `OCCc1ccncc1`, the T/C by setting is: under setting [1], 103 % of control; under setting [2], 105 % of control.

For the compound `O=C(N/N=C/c1ccc2c(c1)CCC2)c1ccncc1`, the T/C was 98 % of control under setting [8], 96 % of control under setting [9] and 98 % of control under setting [10].

As to `Cc1cccnc1Br`, the T/C is 95 % of control (dose: 12.5 mg/kg/injection, schedule: Q01DX009 (ip), vehicle: water); 103 % of control (dose: 25.0 mg/kg/injection, schedule: Q01DX009 (ip), vehicle: water); 95 % of control (dose: 50.0 mg/kg/injection, schedule: Q01DX009 (ip), vehicle: water); 95 % of control (dose: 100.0 mg/kg/injection, schedule: Q01DX009 (ip), vehicle: water); 88 % of control (dose: 200.0 mg/kg/injection, schedule: Q01DX009 (ip), vehicle: water).

For the compound `CCC(C#N)=C1CCCCC1`, the T/C under setting [16] was 93 % of control, the T/C under setting [17] was 91 % of control and the T/C under setting [4] is 91 % of control.

Regarding `CCN(CC)C(=S)SCc1c(Cl)c(Cl)c(Cl)c(Cl)c1Cl`, the T/C is, setting by setting: under setting [5], 94 % of control; under setting [6], 91 % of control; under setting [7], 97 % of control.

Take `Cc1ccc(NC(=O)OCCOc2ccccc2Cl)cc1C`: the T/C under setting [13] was 96 % of control, the T/C under setting [14] is 93 % of control and the T/C under setting [15] was 93 % of control.

Consider `COc1cc(OC)cc(C2=NNc3n[nH]c(=S)n3N2)c1`, for which the T/C was 91 % of control under setting [14]; 93 % of control under setting [8]; 93 % of control under setting [15]; 90 % of control under setting [9]; 102 % of control under setting [10].

Take `C=C1C[C@@H](O)[C@H](O)[C@@]2(C)C[C@@H]3OC(=O)C(=C)[C@@H]3C[C@H]12`: under setting [14], the T/C was 102 % of control.

On to `O=C(O)CCC(NC(=O)COc1ccc(Cl)cc1Cl)C(=O)O` (configuration not stated), for which the T/C reads like this: (dose: 25.0 mg/kg/injection, schedule: Q04DX002 (ip), vehicle: saline with Tween-80) 100 % of control; (dose: 50.0 mg/kg/injection, schedule: Q04DX002 (ip), vehicle: saline with Tween-80) 95 % of control; under setting [5], 100 % of control and 101 % of control; under setting [7], 93 % of control.

As for `C=NCC#N`, the T/C under setting [8] is 106 % of control and the T/C under setting [9] was 101 % of control.

As for `O=CN(/C=C1\CC(OO)NC1=O)Cc1ccccc1` (configuration not stated), the T/C (dose: 75.0 mg/kg/injection, schedule: Q01DX001 (ip), vehicle: saline) was 102 % of control and the T/C (dose: 150.0 mg/kg/injection, schedule: Q01DX001 (ip), vehicle: saline) was 108 % of control.

In the case of `CCCOC(C(=O)OC1CCN(C)CC1)(c1ccccc1)c1ccccc1`, the T/C runs as follows: (dose: 12.5 mg/kg/injection, schedule: Q04DX003 (ip), vehicle: saline) 108 % of control; under setting [16], 102 % of control; under setting [17], 97 % of control.

In the case of `C/C(=C\CC(=O)C/C=C(\C)CCCC(C)CCCC(C)CCCC(C)C)CCCC(C)CCCC(C)CCCC(C)C` (configuration not stated), the T/C runs as follows: under setting [5], 103 % of control; under setting [6], 103 % of control; under setting [7], 96 % of control.

Regarding `Fc1c(F)c(F)c(Oc2c(F)c(F)c(Cl)c(F)c2F)c(F)c1F`, the T/C was 91 % of control under setting [11]; 91 % of control under setting [12]; 88 % of control (dose: 400.0 mg/kg/injection, schedule: Q01DX001 (ip), vehicle: saline with Tween-80).

Values taken from PubChem BioAssay AID256 (DTP/NCI, 2004).
